The results in this text go back to patent publication US11098046B2, “Macrocyclic compounds as TRK kinase inhibitors and uses thereof” (ANGEX PHARMACEUTICAL, INC., priority 2017, dated 2021).

In this test the target is TRK A (Homo sapiens (Human), UniProt P04629). The experiment in a line: HotSpot assay platform, radiometric kinase inhibition. It is filed as biochemical. The note with it: 100 μM ATP, class symbol. As for the experimental part: The HotSpot assay platform was used to measure kinase/inhibitor interactions as described in Anastassiadis et al., Nat Biotechnol. 29:1039-45, 2011. In brief, for each reaction, kinase and substrate were mixed in a buffer containing 20 mM HEPES (pH 7.5), 10 mM MgCl2, 1 mM EGTA, 0.02% Brij35, 0.02 mg/mL BSA, 0.1 mM Na3VO4, 2 mM DTT, and 1% DMSO. Compounds were then added to each reaction mixture. After a 20-min incubation, ATP (Sigma-Aldrich) and [γ-33P] ATP (PerkinElmer) were added at a final total concentration of 100 μM. Reactions were carried out at room temperature for 2 h and spotted onto P81 ion exchange cellulose chromatography paper (Whatman). Filter paper was washed in 0.75% phosphoric acid to remove unincorporated ATP. The percent remaining kinase activity relative to a vehicle-containing (DMSO) kinase reaction was calculated for each kinase/inhibitor pair. Outliers were identified and removed as described in Anastassiadis et al., Nat Biotechnol. 29:1039-45, 2011. IC50 values were calculated using Prism 5 (GraphPad).
Chain of TRK A (P04629 33-796): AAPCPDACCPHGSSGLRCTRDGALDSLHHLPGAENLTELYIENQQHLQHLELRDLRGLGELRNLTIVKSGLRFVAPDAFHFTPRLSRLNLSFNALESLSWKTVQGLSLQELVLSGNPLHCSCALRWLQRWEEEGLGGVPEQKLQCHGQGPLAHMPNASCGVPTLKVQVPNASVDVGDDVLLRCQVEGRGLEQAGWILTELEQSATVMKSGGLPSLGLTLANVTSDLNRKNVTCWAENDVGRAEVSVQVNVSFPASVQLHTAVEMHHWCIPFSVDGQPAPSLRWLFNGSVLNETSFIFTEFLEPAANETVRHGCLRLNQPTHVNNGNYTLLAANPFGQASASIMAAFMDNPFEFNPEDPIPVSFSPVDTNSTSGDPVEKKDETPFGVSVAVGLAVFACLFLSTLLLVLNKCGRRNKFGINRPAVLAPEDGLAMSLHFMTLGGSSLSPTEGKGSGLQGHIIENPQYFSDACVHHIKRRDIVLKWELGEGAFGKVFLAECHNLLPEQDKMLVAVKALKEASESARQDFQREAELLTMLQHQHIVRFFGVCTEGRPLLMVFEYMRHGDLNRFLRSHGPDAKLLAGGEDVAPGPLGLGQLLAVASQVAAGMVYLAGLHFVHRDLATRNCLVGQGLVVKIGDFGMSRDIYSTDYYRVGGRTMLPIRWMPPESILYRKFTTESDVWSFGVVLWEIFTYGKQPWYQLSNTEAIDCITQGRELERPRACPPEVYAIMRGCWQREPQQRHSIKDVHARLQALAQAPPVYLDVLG
As for `O=C1NC2(CCc3ncc(F)cc3[C@H]3[C@@H]4C[C@@H]4CN3c3ccn4ncc1c4n3)CC2` [Compound 19-5], the IC50 is < 100 nM. The value for `O=C1N[C@H](C2CC2)CCc2ncc(F)cc2[C@@H]2[C@H]3C[C@H]3CN2c2ccn3ncc1c3n2` [Compound 20-6] was > 1000 nM. The value for `C[C@@H]1CCc2ncc(F)cc2N2CCC[C@@H]2c2ccn3ncc(c3n2)C(=O)N1` (single isomer, unassigned) [Compound 16-11] was > 1000 nM. In the case of `C[C@@H]1CCc2ncc(F)cc2[C@H]2CCCN2c2ccc3ncc(n3n2)C(=O)N1` [Compound 7-11] it was < 100 nM; in that of `C[C@@H]1CCOc2ncc(F)cc2N2CCCN2c2ccn3ncc(c3n2)C(=O)N1` [Compound 4-3], < 100 nM.

Regarding `C[C@H]1CNC(=O)c2cnn3ccc(nc23)N2C[C@@H]3C[C@@H]3[C@H]2c2cc(F)cnc2O1` [Compound 22-7], the IC50 was > 1000 nM. In the case of `C[C@@H]1CCc2ccccc2N2CCCN2c2ccn3ncc(c3n2)C(=O)N1` [Compound 1-17, (R,1^3E,1^4E)-6-methyl-7-aza-1(5,3)-pyrazolo[1,5-a]pyrimidine-2(1,2)-pyrazolidina-3(1,2)-benzacyclooctaphan-8-one] it was < 100 nM; in that of `C[C@@H]1CCc2ncc(F)cc2[C@H]2[C@@H]3C[C@@H]3CN2c2ccn3ncc(c3n2)C(=O)N1` [Compound 18-11], < 100 nM; in that of `C[C@H]1CNC(=O)c2cnn3ccc(nc23)N2C[C@H]3C[C@H]3[C@@H]2c2cc(F)cnc2O1` [Compound 22-6], < 100 nM.

With `C[C@@H]1CCn2cc(F)cc(c2=O)N2CCCN2c2ccn3ncc(c3n2)C(=O)N1` [Compound 3-3], the IC50 is > 1000 nM.

In the case of `C[C@@H]1CCc2ncc(F)cc2N2CCCN2c2ccn3ncc(c3n2)C(=O)N1` [Compound 1-8, (R,1^3E,1^4E)-3^5-fluoro-6-methyl-7-aza-1(5,3)-pyrazolo[1,5-a]pyrimidine-3(3,2)-pyridina-2(1,2)-pyrazalidinacyclooctaphan-8-one], the IC50 was < 100 nM. The value for `C=C1c2ncc(F)cc2[C@@H]2[C@H]3C[C@H]3CN2c2ccn3ncc(c3n2)C(=O)N[C@@H]1C` (single isomer, unassigned) [Compound 21-5] was 100 to 1000 nM. The value for `O=C1N[C@H](C2CC2)CCc2ncc(F)cc2[C@H]2[C@@H]3C[C@@H]3CN2c2ccn3ncc1c3n2` [Compound 20-5] was < 100 nM.

For `C[C@@H]1CCc2ncc(F)cc2N2CCC[C@H]2c2ccn3ncc(c3n2)C(=O)N1` (single isomer, unassigned) [Compound 16-10], the concentration for half-maximal inhibition (IC50) was > 1000 nM. In the case of `C[C@@H]1CCn2nncc2[C@H]2CCCN2c2ccn3ncc(c3n2)C(=O)N1` [Compound 15-10] it was > 1000 nM; in that of `C[C@@H]1/C=C\c2ncc(F)cc2[C@H]2CCCN2c2ccn3ncc(c3n2)C(=O)N1` [Compound 10-5], < 100 nM; in that of `C[C@@H]1CCc2ncc(F)cc2N2CCC(=O)N2c2ccn3ncc(c3n2)C(=O)N1` [Compound 5-6], 100 to 1000 nM. In the case of `C[C@@H]1CCc2ncc(F)cc2[C@@H]2[C@H]3C[C@H]3CN2c2ccn3ncc(c3n2)C(=O)N1` [Compound 18-12] it was > 1000 nM. In the case of `C[C@@H]1CCn2cc(nn2)[C@H]2CCCN2c2ccn3ncc(c3n2)C(=O)N1` [Compound 14-6] it was > 1000 nM; in that of `C=C1c2ncc(F)cc2[C@H]2[C@@H]3C[C@@H]3CN2c2ccn3ncc(c3n2)C(=O)N[C@@H]1C` (single isomer, unassigned) [Compound 21-4], < 100 nM; in that of `C[C@@H]1CCc2ncc(F)cc2[C@@H]2[C@@H]3[C@H](CN2c2ccn4ncc(c4n2)C(=O)N1)C3(C)C` [Compound 24-11], > 1000 nM. Regarding `C[C@@H]1CCn2cc(nn2)[C@@H]2CCCN2c2ccn3ncc(c3n2)C(=O)N1` [Compound 14-7], the half-maximal inhibitory concentration (IC50) was > 1000 nM. The value for `C[C@@H]1CCc2ncc(F)cc2[C@@H]2[C@H]3[C@@H](CN2c2ccn4ncc(c4n2)C(=O)N1)C3(C)C` [Compound 17-13] was > 1000 nM; that for `C[C@H]1CNC(=O)c2cnn3ccc(nc23)N2C[C@@H]3C[C@@H]3[C@H]2c2cc(F)cn1c2=O` (single isomer, unassigned) [Compound 23-4] was > 1000 nM; that for `C[C@@H]1CCc2ncncc2[C@H]2CCCN2c2ccc3ncc(n3n2)C(=O)N1` [Compound 13-11] was < 100 nM. With `CC1c2ncc(F)cc2[C@H]2CCCN2c2ccn3ncc(c3n2)C(=O)N[C@@H]1C` (some centres unmarked) [Compound 11-6], the IC50 was < 100 nM. In the case of `C=C1c2ncc(F)cc2[C@@H]2CCCN2c2ccn3ncc(c3n2)C(=O)N[C@@H]1C` [Compound 11-5] it was > 1000 nM; in that of `C[C@@H]1CCc2ncc(F)cc2[C@H]2[C@@H]3[C@H](CN2c2ccn4ncc(c4n2)C(=O)N1)C3(C)C` [Compound 17-12], > 1000 nM. For the compound `C[C@@H]1CCc2cnc(F)cc2C2CCCN2c2ccc3ncc(n3n2)C(=O)N1` (some centres unmarked) [Compound 12-12], the IC50 is > 1000 nM. In the case of `O=C1NC2(CCc3ncc(F)cc3[C@@H]3[C@H]4C[C@H]4CN3c3ccn4ncc1c4n3)CC2` [Compound 19-6] it was > 1000 nM; in that of `C[C@@H]1CCc2ncncc2[C@@H]2CCCN2c2ccc3ncc(n3n2)C(=O)N1` [Compound 13-12], 100 to 1000 nM. The value for `C[C@@H]1CCc2ncc(F)cc2[C@H]2[C@H]3[C@@H](CN2c2ccn4ncc(c4n2)C(=O)N1)C3(C)C` [Compound 24-10] was < 100 nM; that for `C[C@H]1CNC(=O)c2cnn3ccc(nc23)N2C[C@H]3C[C@H]3[C@@H]2c2cc(F)cn1c2=O` (single isomer, unassigned) [Compound 23-3] was < 100 nM. As to `C[C@@H]1CCc2ncc(F)cc2[C@@H]2CCCN2c2ccc3ncc(n3n2)C(=O)N1` [Compound 7-12], the IC50 is > 1000 nM.

On to `C[C@@H]1/C=C/c2ncc(F)cc2[C@H]2CCCN2c2ccn3ncc(c3n2)C(=O)N1` [Compound 9-7], for which the IC50 was < 100 nM. The value for `CC1(C)CCc2ncc(F)cc2C2CCCN2c2ccn3ncc(c3n2)NC1=O` (racemic) [Compound 8-8] was 100 to 1000 nM; that for `C[C@@H]1CCc2ncc(F)cc2N2CC3(CC3)CN2c2ccn3ncc(c3n2)C(=O)N1` [Compound 6-10] was < 100 nM; that for `C[C@@H]1/C=C\c2ncc(F)cc2[C@@H]2CCCN2c2ccn3ncc(c3n2)C(=O)N1` [Compound 10-6] was 100 to 1000 nM.
